Data taken from US20250339399A1, “SUPRAMOLECULAR SELF-ASSEMBLY SYSTEM” (Beijing Creatron Institute of Pharmaceutical Research Co., …, priority 2022, published 2025).

Assays:
[1] = Binary (carrier), ternary and quaternary supramolecular self-assembly systems of polymer, carrier building block and target: guest concentration over incubation time (Examples 1-56); format: physicochemical
Description: pH 2.0 hydrochloric acid, pH 4.5 acetate, and pH 6.5, pH 6.8, or pH 7.4 phosphate buffer solutions were prepared. The selection of each initial medium followed the principle that the solubility in the initial medium of the selected targets (or active ingredients) should low enough, but should meet the detection sensitivity and accuracy requirements of the corresponding analytical methods. Each buffer as initial media was placed in a 50 ml test tube with a stopper, shaken in a constant temperature air shaker at 37° C.±0.5° C., with an amplitude of 200 rpm, and incubated for 1 hour. […] Samples were taken at 0.5 h, 3 h and 6 h after incubation, centrifuged at 37° C., 13000 rpm for 5 minutes, and the supernatant was diluted at least 10 times with the mobile phase under the target analyte analytical method, filtered, the initial filtrate was discarded, and the continued filtrate was used as the test solution for injection analysis. The corresponding HPLC method under each target object item in Table 8 was used to determine the content of each target substance. When the solubility of the target in the initial medium is below the quantitative limit of the analytical method, a small amount of surfactant, such as sodium dodecyl sulfate (SDS), Tween20, or Tween80, can be added appropriately.
Experiments were conducted according to the steps in Comparative Example 1, and quantitative analysis was carried out using the analytical method for each target to investigate the regulation ability of each binary supramolecular self-assembly system built from 0.5% polymer and target on guest molecules stacking.
Ternary supramolecular self-assembly systems based on different polymers, carrier building blocks, and targets were built according to the experimental scheme in Table 12, to investigate the influence of synergistic regulation of the carrier building blocks and the polymers on the stacking of target molecules, as well as the stability of the supramolecular self-assembly systems jointly built by them over incubation time. The initial medium, quantitative analysis method, pre-treatment method, and initial theoretical concentration of the target, corresponding to each target molecule in the experiment, were consistent with those in Comparative Examples 1 and 2. After a target was added to the system, the target was uniformly dispersed by ultrasonication at 37° C. for half an hour and then shaken in a 37° C. constant temperature air shaker, and samples were collected after different incubation time, i.e. 0.5 h, 1 h, 2 h, 3 h, 4 h, and 6 h.

[2] = Binary supramolecular self-assembly systems of polymer and target: guest concentration over incubation time (Comparative Example 2); format: physicochemical
Description: Experiments were conducted according to the steps in Comparative Example 1, and quantitative analysis was carried out using the analytical method for each target to investigate the regulation ability […] stacking.

[3] = cited from earlier work
[4] = Guest molecule concentration after incubation in initial medium without polymer (Comparative Example 1); format: physicochemical; conditions: 37° C.
Procedure, shortened: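 Dissolved guest content measured by HPLC of centrifuged supernatants (37° C., 13000 rpm, 5 min) sampled at 0.5 h, 3 h and 6 h. Incubation was polymer-free at 37° C.±0.5° C. in buffers of pH 2.0-7.4; nominal loading was set by maximum clinical dose.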

[5] = binary system with 0.5% polymer 101, incubation 0.5 h
[6] = binary system with 0.5% polymer 101, incubation 3 h
[7] = binary system with 0.5% polymer 101, incubation 6 h
[8] = binary system with 0.5% polymer 102, incubation 0.5 h
[9] = binary system with 0.5% polymer 102, incubation 3 h
[10] = binary system with 0.5% polymer 102, incubation 6 h
[11] = binary system with 0.5% polymer 103, incubation 0.5 h
[12] = binary system with 0.5% polymer 103, incubation 3 h
[13] = binary system with 0.5% polymer 103, incubation 6 h
[14] = binary system with 0.5% polymer 106, incubation 0.5 h
[15] = binary system with 0.5% polymer 106, incubation 3 h
[16] = binary system with 0.5% polymer 106, incubation 6 h
[17] = binary system with 0.5% polymer 107, incubation 0.5 h
[18] = binary system with 0.5% polymer 107, incubation 3 h
[19] = binary system with 0.5% polymer 107, incubation 6 h
[20] = ternary: 0.25% 102H + 1.0% 313, 6 h

Compound | Concentration of the target in the solution measured after different incubation time [2, 5] | Concentration of the target in the solution measured after different incubation time [2, 6] | Concentration of the target in the solution measured after different incubation time [2, 7] | Concentration of the target in the solution measured after different incubation time [2, 8] | Concentration of the target in the solution measured after different incubation time [2, 9] | Concentration of the target in the solution measured after different incubation time [2, 10] | Concentration of the target in the solution measured after different incubation time [2, 11] | Concentration of the target in the solution measured after different incubation time [2, 12] | Concentration of the target in the solution measured after different incubation time [2, 13] | Concentration of the target in the solution measured after different incubation time [2, 14] | Concentration of the target in the solution measured after different incubation time [2, 15] | Concentration of the target in the solution measured after different incubation time [2, 16] | Concentration of the target in the solution measured after different incubation time [2, 17] | Concentration of the target in the solution measured after different incubation time [2, 18] | Concentration of the target in the solution measured after different incubation time [2, 19] | LogD7.4 or Log P [3] | also measured
COc1cc2nccc(Oc3ccc(NC(=O)NC4CC4)c(Cl)c3)c2cc1C(N)=O [Lenvatinib] | 45.5 µg/mL | 29.3 µg/mL | 28.6 µg/mL | 76.8 µg/mL | 26.2 µg/mL | 27.8 µg/mL | 12.9 µg/mL | 11.3 µg/mL | 7.6 µg/mL | 7.3 µg/mL | 7.9 µg/mL | 6.5 µg/mL | 68.2 µg/mL | 9.7 µg/mL | 6.1 µg/mL | 2.52 | Concentration of guest molecule in solution ([1]; quaternary: 0.25% 205 (102H+104) + 310, 6 h): 116.4 µg/mL; Concentration of guest molecule in solution ([1]; quaternary: 0.25% 205 (102H+104) + 313, carrier % not stated, 6 h): 112.1 µg/mL; Concentration of the target in the solution measured after different incubation time ([2]; binary system with 0.5% polymer 104, incubation 0.5 h): 37.8 µg/mL; Concentration of the target in the solution measured after different incubation time ([2]; binary system with 0.5% polymer 104, incubation 3 h): 42.7 µg/mL; Concentration of the target in the solution measured after different incubation time ([2]; binary system with 0.5% polymer 104, incubation 6 h): 67.5 µg/mL; Concentration of guest molecule in solution ([2]; binary: 102H, % not stated at the place, 6 h): 59.5 µg/mL; Concentration of guest molecule in solution ([2]; binary: 104, % not stated at the place, 6 h): 47.6 µg/mL; Concentration of guest molecule measured after different incubated time ([4]; 0.5 h, pH 6.8 phosphate buffer): 7.6 µg/mL; Concentration of guest molecule measured after different incubated time ([4]; 3 h, pH 6.8 phosphate buffer): 1.7 µg/mL; Concentration of guest molecule measured after different incubated time ([4]; 6 h, pH 6.8 phosphate buffer): 0.9 µg/mL
CCCCC1OC(=O)c2ccccc21 (stereo not shown) [Butylphthalide] | 555.9 µg/mL | 229.5 µg/mL | 230.7 µg/mL | 258.9 µg/mL | 245.3 µg/mL | 244.5 µg/mL | 234.7 µg/mL | 230.8 µg/mL | 233.8 µg/mL | 240.7 µg/mL | 244.6 µg/mL | 241.9 µg/mL | 242.4 µg/mL | 240.0 µg/mL | 243.7 µg/mL | 3.36 | Concentration of guest molecule in solution ([1]; ternary: 0.25% 102M + 0.25% 313, 2 h): 480.3 µg/mL; Concentration of guest molecule in solution ([1]; ternary: 0.25% 102M + 0.25% 313, 6 h): 650.6 µg/mL; Concentration of guest molecule in solution ([1]; ternary: 0.25% 102M + 0.25% 313, 10 h): 1026.3 µg/mL; Concentration of guest molecule in solution ([1]; ternary: 0.25% 102M + 0.25% 314, 2 h): 1103.4 µg/mL; Concentration of guest molecule in solution ([1]; ternary: 0.25% 102M + 0.25% 314, 6 h): 406.8 µg/mL; Concentration of guest molecule in solution ([1]; ternary: 0.25% 102M + 0.25% 318, 2 h): 521.5 µg/mL; Concentration of guest molecule in solution ([1]; ternary: 0.25% 102M + 0.25% 318, 6 h): 754.1 µg/mL; Concentration of guest molecule in solution ([1]; ternary: 0.25% 102M + 0.25% 318, 10 h): 1310.2 µg/mL; Concentration of guest molecule in solution ([1]; ternary: 0.25% 102M + 0.25% 319, 2 h): 413.5 µg/mL; Concentration of guest molecule in solution ([1]; ternary: 0.25% 102M + 0.25% 319, 6 h): 643.7 µg/mL; Concentration of guest molecule in solution ([1]; ternary: 0.25% 102M + 0.25% 319, 10 h): 1125.6 µg/mL; Concentration of the target in the solution measured after different incubation time ([2]; binary system with 0.5% polymer 110, incubation 0.5 h): 240.5 µg/mL; Concentration of the target in the solution measured after different incubation time ([2]; binary system with 0.5% polymer 110, incubation 3 h): 253.9 µg/mL; Concentration of the target in the solution measured after different incubation time ([2]; binary system with 0.5% polymer 110, incubation 6 h): 252.1 µg/mL; Concentration of guest molecule measured after different incubated time ([4]; 0.5 h, pH 6.5 phosphate buffer): 252.2 µg/mL; Concentration of guest molecule measured after different incubated time ([4]; 3 h, pH 6.5 phosphate buffer): 246.4 µg/mL; Concentration of guest molecule measured after different incubated time ([4]; 6 h, pH 6.5 phosphate buffer): 246.0 µg/mL
CCOC(=O)C1=C(C)NC(C)=C(C(=O)OC)C1c1cccc(Cl)c1Cl (stereo not shown) [Felodipine] | 144.8 µg/mL | 152.8 µg/mL | 147.5 µg/mL | 459.9 µg/mL | 472.0 µg/mL | 459.4 µg/mL | 18.9 µg/mL | 18.9 µg/mL | 22.2 µg/mL | 33.5 µg/mL | 30.2 µg/mL | 23.6 µg/mL | 51.2 µg/mL | 26.7 µg/mL | 11.8 µg/mL | 3.90 | Concentration of guest molecule in solution [1, 20]: 662 µg/mL; Times that of the initial medium [1, 20]: about 32.5 times; Concentration of guest molecule in solution ([2]; binary: 0.25% 102H, 6 h): 276 µg/mL; Times that of the initial medium ([2]; binary: 0.25% 102H, 6 h): about 13.5 times; Concentration of guest molecule measured after different incubated time ([4]; 0.5 h, 0.05% Tween 20 in pH 6.8 phosphate buffer): 18.1 µg/mL; Concentration of guest molecule measured after different incubated time ([4]; 3 h, 0.05% Tween 20 in pH 6.8 phosphate buffer): 17.8 µg/mL; Concentration of guest molecule measured after different incubated time ([4]; 6 h, 0.05% Tween 20 in pH 6.8 phosphate buffer): 20.4 µg/mL
